For 15 compounds, IC50 results are on record in US20090111778A1, “2-Keto-Oxazoles as Modulators of Fatty Acid Amide Hydrolase” (priority 2005, published 2009).

One experiment concerns the target T1, human FAAH (Homo sapiens, UniProt O00519).
T1 construct: expressed in transfected cells
T1 sequence (O00519 1-579): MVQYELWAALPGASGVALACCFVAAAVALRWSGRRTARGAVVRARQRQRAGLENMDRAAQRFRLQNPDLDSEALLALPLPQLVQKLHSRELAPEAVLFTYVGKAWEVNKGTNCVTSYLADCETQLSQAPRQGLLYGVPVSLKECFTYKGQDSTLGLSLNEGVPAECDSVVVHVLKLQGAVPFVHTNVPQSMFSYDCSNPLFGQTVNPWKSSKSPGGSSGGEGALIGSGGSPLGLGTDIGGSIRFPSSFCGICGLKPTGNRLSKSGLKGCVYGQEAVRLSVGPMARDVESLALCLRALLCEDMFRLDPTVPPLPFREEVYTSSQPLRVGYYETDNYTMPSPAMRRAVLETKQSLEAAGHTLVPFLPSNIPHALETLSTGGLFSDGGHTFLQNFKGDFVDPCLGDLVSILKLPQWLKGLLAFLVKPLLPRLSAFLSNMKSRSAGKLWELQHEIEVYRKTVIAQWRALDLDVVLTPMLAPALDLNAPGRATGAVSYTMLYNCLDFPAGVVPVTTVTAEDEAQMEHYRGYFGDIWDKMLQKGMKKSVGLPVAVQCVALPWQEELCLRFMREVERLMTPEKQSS
Nature of the experiment: Assay Method 1: FAAH assay, hydrolysis of 3H-anandamide by homogenate of SK-N-MC cells transfected with human FAAH. The class given is biochemical. The note with it: human FAAH; T84 or transfected SK-N-MC cell homogenate; 3H-AEA tracer 80 nM; rt 1 h; pH 9; read-out: Assay 1 IC50. Put shortly: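 Homogenate of SK-N-MC cells stably expressing human FAAH (G418-selected clones) incubated with compound and 80 nM [1-3H-ethanolamine]anandamide for 1 h at rt. Released 3H-ethanolamine separated from substrate by activated-charcoal filtration, then counted by scintillation.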

Another experiment concerns the target T2, rat FAAH (Rattus norvegicus, UniProt P97612).
T2 construct: expressed in transfected cells
T2 sequence (P97612 1-579): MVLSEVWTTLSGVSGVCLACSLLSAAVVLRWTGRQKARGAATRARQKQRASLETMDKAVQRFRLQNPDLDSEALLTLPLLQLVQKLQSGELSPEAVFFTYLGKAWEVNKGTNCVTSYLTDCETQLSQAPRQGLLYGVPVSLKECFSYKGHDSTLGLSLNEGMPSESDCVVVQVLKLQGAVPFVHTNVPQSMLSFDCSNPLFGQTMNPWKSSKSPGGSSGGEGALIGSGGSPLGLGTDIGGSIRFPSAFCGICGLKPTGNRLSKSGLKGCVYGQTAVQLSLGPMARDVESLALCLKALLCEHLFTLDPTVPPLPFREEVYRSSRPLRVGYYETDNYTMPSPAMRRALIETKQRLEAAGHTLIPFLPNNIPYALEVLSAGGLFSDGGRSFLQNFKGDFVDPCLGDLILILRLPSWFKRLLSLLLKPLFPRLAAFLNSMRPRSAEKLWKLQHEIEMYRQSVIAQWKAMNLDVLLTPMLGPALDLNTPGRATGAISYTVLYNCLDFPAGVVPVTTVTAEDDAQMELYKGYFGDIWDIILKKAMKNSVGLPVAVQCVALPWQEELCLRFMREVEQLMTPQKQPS
As to the kind of experiment: Assay Method 2: FAAH assay, hydrolysis of 3H-anandamide by homogenate of SK-N-MC cells transfected with rat FAAH. The class given is biochemical. To be noted: T84 or transfected SK-N-MC cell homogenate, 3H-AEA tracer 80 nM, rt 1 h, pH 9. The procedure, abridged: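 Rat FAAH activity from homogenate of G418-selected, electroporated SK-N-MC clones was measured as release of radiolabelled ethanolamine from 3H-anandamide. After 1 h at rt, charcoal filtration retained substrate, and scintillation counting of the flow-through gave the read-out.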

Counter-ions that a name gives are not always drawn.

The term IC50 denotes the concentration needed to halve the response being measured. Consider `CC(C)(C)COC(=O)N1CCC(CCCC(=O)c2ncco2)CC1` [Example 67, 4-(4-Oxazol-2-yl-4-oxo-butyl)-piperidine-1-carboxylic acid 2,2-dimethyl-propyl ester], for which the values for the IC50 on human FAAH and at rat FAAH were 50 nM and 118 nM, respectively.
On to `O=C(CCCC1CCN(Cc2ccccc2)CC1)c1ncco1` [Example 3, 4-(1-Benzyl-piperidin-4-yl)-1-oxazol-2-yl-butan-1-one], for which the half-maximal inhibitory concentration (IC50) at human FAAH was determined as 315 nM; against rat FAAH, 900 nM.
As for `CCCOC(=O)N1CCC(CCCC(=O)c2ncco2)CC1` [Example 70, 4-(4-Oxazol-2-yl-4-oxo-butyl)-piperidine-1-carboxylic acid propyl ester], the IC50 on human FAAH is 7 nM; at rat FAAH, 19 nM.
Taken in the same sequence, the figures for `O=C(CCCC1CCN(Cc2ccc3cccnc3n2)CC1)c1ncco1` [Example 116, 4-(1-[1,8]Naphthyridin-2-ylmethyl-piperidin-4-yl)-1-oxazol-2-yl-butan-1-one] were 370 nM and 7000 nM.
The matching figures for `O=C(CCCC1CCN(Cc2ccc(F)c(F)c2)CC1)c1ncco1` [Example 115, 4-[1-(3,4-Difluoro-benzyl)-piperidin-4-yl]-1-oxazol-2-yl-butan-1-one]: 78 nM and 750 nM.
Taken in the same sequence, the figures for `O=C(CCCC1CCN(Cc2ccc(Cl)nc2)CC1)c1ncco1` [Example 75, 4-[1-(6-Chloro-pyridin-3-ylmethyl)-piperidin-4-yl]-1-oxazol-2-yl-butan-1-one] were 600 nM and 1000 nM.
`O=C(CCCC1CCN(Cc2ccc(-c3ccccc3)c(F)c2)CC1)c1ncco1` [Example 138, 4-[1-(2-Fluoro-biphenyl-4-ylmethyl)-piperidin-4-yl]-1-oxazol-2-yl-butan-1-one]: the IC50 was 71 nM at human FAAH and 113 nM against rat FAAH.
Taken in the same sequence, the figures for `O=C(CCCC1CCN(C(=O)COc2ccccc2)CC1)c1ncco1` [Example 33, 1-Oxazol-2-yl-4-[1-(2-phenoxy-acetyl)-piperidin-4-yl]-butan-1-one] were 848 nM and 889 nM.
With `CCCCCCCN1CCC(CCCC(=O)c2ncco2)CC1` [Example 126, 4-(1-Heptyl-piperidin-4-yl)-1-oxazol-2-yl-butan-1-one], the 50% inhibitory concentration (IC50) worked out at 23 nM on human FAAH and 810 nM against rat FAAH.
As for `O=C(CCCC1CCN(Cc2cnc3ccccc3n2)CC1)c1ncco1` [Example 117, 1-Oxazol-2-yl-4-(1-quinoxalin-2-ylmethyl-piperidin-4-yl)-butan-1-one], the results for the IC50 on human FAAH and against rat FAAH were 175 nM and 277 nM, respectively.
Consider `O=C(CCCC1CCN(Cc2ccncc2)CC1)c1ncco1` [Example 6, 1-Oxazol-2-yl-4-(1-pyridin-4-ylmethyl-piperidin-4-yl)-butan-1-one], for which the figures for the concentration for half-maximal inhibition (IC50) at human FAAH and on rat FAAH were 359 nM and 550 nM, respectively.
As to `O=C(O)c1cnc(C(=O)CCCC2CCN(Cc3cccc(-c4ccccc4)c3)CC2)o1` [Example 143, 2-[4-(1-Biphenyl-3-ylmethyl-piperidin-4-yl)-butyryl]-oxazole-5-carboxylic acid trifluoroacetic acid salt], the 50% inhibitory concentration (IC50) is 14 nM at human FAAH and 3 nM against rat FAAH.
As for `CC(C)c1ccc(CN2CCC(CCCC(=O)c3ncc(C(=O)O)o3)CC2)cc1` [Example 144, 2-{4-[1-(4-Isopropyl-benzyl)-piperidin-4-yl]-butyryl}-oxazole-5-carboxylic acid trifluoroacetic acid salt], the IC50 on human FAAH was determined as 75 nM; at rat FAAH it was 17 nM.
For the compound `O=C(CCCC1CCN(Cc2ccc3ccccc3n2)CC1)c1ncco1` [Example 92, 1-Oxazol-2-yl-4-(1-quinolin-2-ylmethyl-piperidin-4-yl)-butan-1-one], the figures for the 50% inhibitory concentration (IC50) at human FAAH and against rat FAAH were 60 nM and 290 nM, respectively.
On to `O=C(CCCC1CCN(C(=O)Cc2cccc(Cl)c2)CC1)c1ncco1` [Example 41, 4-{1-[2-(3-Chloro-phenyl)-acetyl]-piperidin-4-yl}-1-oxazol-2-yl-butan-1-one], for which the half-inhibitory concentration (IC50) came out at 640 nM on human FAAH and 712 nM against rat FAAH.
